According to publication PMC4038613, “A New Class of Multimerization Selective Inhibitors of HIV-1 Integrase” (PLoS Pathogens, 2014):
Like-named read-outs stand apart in the source and are kept apart here.

Experiments:
Assay type in all cases: cell-based
[1] = system: VSV-G pseudotyped HIV-1-Luc in wild type HEK293T cells; assay: microbe, parasite or virus in culture; settings: Human immunodeficiency virus 1, HEK-293T
HIV-1 particles = assay: Virus production (Gag p24 ELISA) and virion protein processing (immunoblot); settings: 1 µM KF116
Protocol: HEK293T cells (2×10^6 cells/100 mm culture dish in 10 ml of complete medium) were transfected with HIV-1 provirus (pNL4-3) and cultured for 24 h to ensure expression of the provirus as described above. Next, the cells were treated with the indicated inhibitor or diluent control (DMSO) for 1 h. The culture supernatant was replaced with fresh complete medium containing either the inhibitor or DMSO, and cells were then cultured for another 24 h to allow for the production of HIV-1 particles in the presence of the inhibitor or diluent control. The virus containing cell-free supernatant was collected, filtered through 0.45 µm filter, and the amounts of viral particles produced was measured by HIV-1 Gag p24 ELISA (ZeptoMetrix) following manufacturer's protocol. Equivalent amounts of virions (∼5 µg p24 based on HIV-1 p24 ELISA) were concentrated over a 25% sucrose cushion by ultra-centrifugation at 28,000 rpm for 2 h at 4°C in SW41 rotor (Beckman). Pelleted virions were lysed in 100 µL RIPA buffer containing 50 mM Tris (pH 8.0), 150 mM NaCl, 0.1% SDS, 1% Triton-X, 1% deoxycholic acid, and 2 mM PMSF. Indicated amounts of concentrated virions were resolved by SDS-PAGE (4–12%, Invitrogen) and immunoblotted.
HEK293T cells were transfected with HIV-1 provirus (pNL4-3). […] (A) Virus-containing cell-free supernatant were harvested and cell-free Gag was measured by HIV-1 Gag p24 ELISA. […]

HIV-1 virions = assay: Virion RNA packaging; settings: 1 µM KF116
Protocol: HEK293T cells (2×10^6 cells/100 mm culture dish in 10 ml of complete medium) were transfected with HIV-1 provirus (pNL4-3) and cultured for 24 h to ensure expression of the provirus as described above. Next, the cells were treated with the indicated inhibitor or diluent control (DMSO) for 1 h. The culture supernatant was replaced with fresh complete medium containing either the inhibitor or DMSO, and cells were then cultured for another 24 h to allow for the production of HIV-1 particles in the presence of the inhibitor or diluent control. The virus containing cell-free supernatant was collected, filtered through a 0.45 µm filter, and concentrated over a 25% sucrose cushion by ultra-centrifugation at 28,000 rpm for 2 h at 4°C in SW41 rotor (Beckman). […] RNA was isolated from the pelleted virions and subsequent cDNA preparations were used for gag quantitative PCR as described above. Relative virion RNA packaging was calculated by normalizing virion Gag RNA copy numbers to Gag p24.
In parallel, aliquots of cell-free virus-containing supernatant were used to measure the amount of viral particles produced using HIV-1 Gag p24 ELISA. Virion RNA packaging was calculated by normalizing virion Gag RNA copy numbers to Gag p24. […]

[2] = system: LEDGF/p75-dependent HIV-1 integration; assay: HIV-1 integration site distribution (ligation-mediated PCR, 454-pyrosequencing)
[3] = Target, 5 µM, *** P<0.001 vs DMSO
[4] = target cells, 10 µM, *** P<0.001 vs DMSO

Question: How did the EC50 ([1]; read-out: EC50, WT producer cells) turn out when `Cc1nc(-c2nc3ccc(Cl)cc3[nH]2)c(C)c(-c2ccccc2)c1C(OC(C)(C)C)C(=O)O` (centres unmarked) [KF116] was run?
Answer: The EC50 was roughly 69 nM.

Question: What about the EC50 ([1]; read-out: EC50, WT target cells) of the same compound?
Answer: Its EC50 is greater than 50000 nM.

Question: What about the “effect on HIV-1 Gag/Gag-Pol protein processing” value (HIV-1 particles) of the same compound?
Answer: Its value is “did not affect”.

Question: And the “effect on virus particle production” value (HIV-1 particles)?
Answer: Its value is “did not affect”.

Question: What about the “effect on viral genomic RNA packaging” value (HIV-1 virions) of the same compound?
Answer: The value was “did not affect”.

Question: What about the “% in RefSeq (HIV-1 integration frequency)” value (“% in RefSeq” below) ([2]; Producer, 100 nM) of the same compound?
Answer: Its value is 82.67%.

Question: What about the “% in known genes (HIV-1 integration frequency)” value (shortened to “% in known genes”) ([2]; Producer, 100 nM) of the same compound?
Answer: Its value is 83.79%.

Question: What about the “% in RefSeq” value [2, 3] of the same compound?
Answer: The value was 81.17%.

Question: What about the “% in known genes” value [2, 3] of the same compound?
Answer: The value was 82.38%.

Question: And the “% in RefSeq” value [2, 4]?
Answer: The value was 83.17%.

Question: And the “% in known genes” value [2, 4]?
Answer: The value was 84.31%.
